Reference: BigSolDB 2.1

N#CCc1ccc([N+](=O)[O-])cc1
Conditions | solubility (mole fraction)
in 1,4-dioxane, 288.15 K | 0.0461
in 1,4-dioxane, 293.15 K | 0.0567
in 1,4-dioxane, 298.15 K | 0.0715
in 1,4-dioxane, 303.15 K | 0.0888
in 1,4-dioxane, 308.15 K | 0.109
in 1,4-dioxane, 313.15 K | 0.134
in 1,4-dioxane, 318.15 K | 0.161
in 1,4-dioxane, 323.15 K | 0.193
in 1,4-dioxane, 328.15 K | 0.232
in 1,4-dioxane, 333.15 K | 0.283
in 2-butanone, 278.15 K | 0.0458
in 2-butanone, 283.15 K | 0.0534
in 2-butanone, 288.15 K | 0.0617
in 2-butanone, 293.15 K | 0.0717
in 2-butanone, 298.15 K | 0.0828
in 2-butanone, 303.15 K | 0.0953
in 2-butanone, 308.15 K | 0.109
in 2-butanone, 313.15 K | 0.126
in 2-butanone, 318.15 K | 0.144
in 2-butanone, 323.15 K | 0.166
in 2-butanone, 328.15 K | 0.189
in 2-butanone, 333.15 K | 0.216
in acetic acid, 293.15 K | 0.014
in acetic acid, 298.15 K | 0.0166
in acetic acid, 303.15 K | 0.0195
in acetic acid, 308.15 K | 0.0231
in acetic acid, 313.15 K | 0.0272
in acetic acid, 318.15 K | 0.0319
in acetic acid, 323.15 K | 0.0375
in acetic acid, 328.15 K | 0.0438
in acetic acid, 333.15 K | 0.0516
in acetone, 278.15 K | 0.057
in acetone, 283.15 K | 0.0658
in acetone, 288.15 K | 0.0753
in acetone, 293.15 K | 0.0859
in acetone, 298.15 K | 0.0974
in acetone, 303.15 K | 0.111
in acetone, 308.15 K | 0.126
in acetone, 313.15 K | 0.143
in acetone, 318.15 K | 0.162
in acetone, 323.15 K | 0.183
in acetone, 328.15 K | 0.206
in acetonitrile, 278.15 K | 0.0361
in acetonitrile, 283.15 K | 0.0437
in acetonitrile, 288.15 K | 0.0519
in acetonitrile, 293.15 K | 0.0628
in acetonitrile, 298.15 K | 0.0749
in acetonitrile, 303.15 K | 0.0899
in acetonitrile, 308.15 K | 0.105
in acetonitrile, 313.15 K | 0.124
in acetonitrile, 318.15 K | 0.145
in acetonitrile, 323.15 K | 0.169
in acetonitrile, 328.15 K | 0.196
in acetonitrile, 333.15 K | 0.228
in cyclohexane, 283.15 K | 9.17e-05
in cyclohexane, 288.15 K | 0.000111
in cyclohexane, 293.15 K | 0.000134
in cyclohexane, 298.15 K | 0.000166
in cyclohexane, 303.15 K | 0.000209
in cyclohexane, 308.15 K | 0.000258
in cyclohexane, 313.15 K | 0.000327
in cyclohexane, 318.15 K | 0.000409
in cyclohexane, 323.15 K | 0.000505
in cyclohexane, 328.15 K | 0.000639
in cyclohexane, 333.15 K | 0.000822
in ethanol, 278.15 K | 0.00183
in ethanol, 283.15 K | 0.00223
in ethanol, 288.15 K | 0.00279
in ethanol, 293.15 K | 0.00352
in ethanol, 298.15 K | 0.0043
in ethanol, 303.15 K | 0.00536
in ethanol, 308.15 K | 0.00654
in ethanol, 313.15 K | 0.00788
in ethanol, 318.15 K | 0.00986
in ethanol, 323.15 K | 0.0122
in ethanol, 328.15 K | 0.0149
in ethanol, 333.15 K | 0.0178
in ethyl acetate, 278.15 K | 0.122
in ethyl acetate, 283.15 K | 0.13
in ethyl acetate, 288.15 K | 0.14
in ethyl acetate, 293.15 K | 0.149
in ethyl acetate, 298.15 K | 0.159
in ethyl acetate, 303.15 K | 0.17
in ethyl acetate, 308.15 K | 0.182
in ethyl acetate, 313.15 K | 0.196
in ethyl acetate, 318.15 K | 0.21
in ethyl acetate, 323.15 K | 0.228
in ethyl acetate, 328.15 K | 0.246
in ethyl acetate, 333.15 K | 0.268
in ethylbenzene, 278.15 K | 0.00564
in ethylbenzene, 283.15 K | 0.00685
in ethylbenzene, 288.15 K | 0.00784
in ethylbenzene, 293.15 K | 0.00969
in ethylbenzene, 298.15 K | 0.0118
in ethylbenzene, 303.15 K | 0.0135
in ethylbenzene, 308.15 K | 0.0163
in ethylbenzene, 313.15 K | 0.0201
in ethylbenzene, 318.15 K | 0.0238
in ethylbenzene, 323.15 K | 0.0284
in ethylbenzene, 328.15 K | 0.0343
in ethylbenzene, 333.15 K | 0.0446
in isobutanol, 278.15 K | 0.000842
in isobutanol, 283.15 K | 0.00108
in isobutanol, 288.15 K | 0.00139
in isobutanol, 293.15 K | 0.00178
in isobutanol, 298.15 K | 0.00229
in isobutanol, 303.15 K | 0.00299
in isobutanol, 308.15 K | 0.00383
in isobutanol, 313.15 K | 0.00492
in isobutanol, 318.15 K | 0.0063
in isobutanol, 323.15 K | 0.00806
in isobutanol, 328.15 K | 0.0102
in isobutanol, 333.15 K | 0.0129
in isopropanol, 278.15 K | 0.000901
in isopropanol, 283.15 K | 0.00119
in isopropanol, 288.15 K | 0.00153
in isopropanol, 293.15 K | 0.00193
in isopropanol, 298.15 K | 0.00252
in isopropanol, 303.15 K | 0.00332
in isopropanol, 308.15 K | 0.00424
in isopropanol, 313.15 K | 0.00535
in isopropanol, 318.15 K | 0.00683
in isopropanol, 323.15 K | 0.00864
in isopropanol, 328.15 K | 0.011
in isopropanol, 333.15 K | 0.0138
in methanol, 278.15 K | 0.00237
in methanol, 283.15 K | 0.00274
in methanol, 288.15 K | 0.00336
in methanol, 293.15 K | 0.0043
in methanol, 298.15 K | 0.00547
in methanol, 303.15 K | 0.00695
in methanol, 308.15 K | 0.00865
in methanol, 313.15 K | 0.011
in methanol, 318.15 K | 0.0136
in methanol, 323.15 K | 0.017
in methanol, 328.15 K | 0.0212
in methanol, 333.15 K | 0.0262
in n-butanol, 278.15 K | 0.00128
in n-butanol, 283.15 K | 0.00147
in n-butanol, 288.15 K | 0.0019
in n-butanol, 293.15 K | 0.00241
in n-butanol, 298.15 K | 0.00306
in n-butanol, 303.15 K | 0.00388
in n-butanol, 308.15 K | 0.00501
in n-butanol, 313.15 K | 0.00643
in n-butanol, 318.15 K | 0.00807
in n-butanol, 323.15 K | 0.0102
in n-butanol, 328.15 K | 0.0129
in n-butanol, 333.15 K | 0.0159
in n-propanol, 278.15 K | 0.00133
in n-propanol, 283.15 K | 0.00165
in n-propanol, 288.15 K | 0.00204
in n-propanol, 293.15 K | 0.0026
in n-propanol, 298.15 K | 0.00332
in n-propanol, 303.15 K | 0.0042
in n-propanol, 308.15 K | 0.00526
in n-propanol, 313.15 K | 0.00673
in n-propanol, 318.15 K | 0.00847
in n-propanol, 323.15 K | 0.0107
in n-propanol, 328.15 K | 0.0135
in n-propanol, 333.15 K | 0.017
in toluene, 278.15 K | 0.00791
in toluene, 283.15 K | 0.00966
in toluene, 288.15 K | 0.0117
in toluene, 293.15 K | 0.0148
in toluene, 298.15 K | 0.0177
in toluene, 303.15 K | 0.0208
in toluene, 308.15 K | 0.0252
in toluene, 313.15 K | 0.0298
in toluene, 318.15 K | 0.0354
in toluene, 323.15 K | 0.0432
in toluene, 328.15 K | 0.053
in toluene, 333.15 K | 0.0657
in water, 278.15 K | 1.5e-05
in water, 283.15 K | 1.94e-05
in water, 288.15 K | 2.48e-05
in water, 293.15 K | 2.98e-05
in water, 298.15 K | 3.55e-05
in water, 303.15 K | 4.27e-05
in water, 308.15 K | 5.2e-05
in water, 313.15 K | 6.4e-05
in water, 318.15 K | 7.89e-05
in water, 323.15 K | 9.63e-05
in water, 328.15 K | 0.000117
in water, 333.15 K | 0.000142
